pEC50: −log10 of the molar value.
Target: T1, human mAChR M4 (Homo sapiens, UniProt P08173)
T1 construct: expressed in transfected cells
T1 sequence (P08173 1-479): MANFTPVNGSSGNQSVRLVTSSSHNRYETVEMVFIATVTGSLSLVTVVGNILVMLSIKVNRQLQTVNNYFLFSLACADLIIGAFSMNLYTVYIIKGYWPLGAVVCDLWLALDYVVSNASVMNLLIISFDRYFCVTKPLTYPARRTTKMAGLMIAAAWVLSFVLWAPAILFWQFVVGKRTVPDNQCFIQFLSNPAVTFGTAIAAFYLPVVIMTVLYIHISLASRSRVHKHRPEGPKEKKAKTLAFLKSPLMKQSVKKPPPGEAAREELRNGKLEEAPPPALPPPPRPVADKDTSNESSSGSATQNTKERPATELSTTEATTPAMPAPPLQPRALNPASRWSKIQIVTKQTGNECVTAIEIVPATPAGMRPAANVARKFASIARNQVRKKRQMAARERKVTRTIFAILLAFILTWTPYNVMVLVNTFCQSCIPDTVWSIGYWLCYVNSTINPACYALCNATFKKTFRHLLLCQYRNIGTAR
Assay: mAChR M4 cell-based functional assay (calcium mobilization, CHO-K1 hM4-Gqi5 cells)
Conditions: for Emax at 30 µM: CHO-K1, % ACh maximum at 30 μM, human M4; for pEC50: positive allosteric modulator activity, increase in the EC20 acetylcholine response, CHO-K1 hM4-Gqi5 cells, read-out: Human M4 EC50
How it was run: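 Fluorescent calcium read-out (Fluo-4 AM, FDSS, 1 Hz) in hM4-Gqi5 CHO-K1 cells, 11-point 1:3 compound series. Agonism scored on compound addition, PAM activity as increase of the 144 s EC20 acetylcholine response, antagonism as decrease of the 230 s EC80 response; four-parameter logistic fits give EC50 and Emax.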

Row | SMILES | Emax at 30 µM | pEC50 | Emax (CHO-K1)
1 | Cc1cc(C(=O)NCc2cncs2)cnc1N1CCc2ncc(C(F)(F)F)cc2C1 [Example 443, 5-methyl-N-(thiazol-5-ylmethyl)-6-(3-(trifluoromethyl)-7,8-dihydro-1,6-naphthyridin-6(5H)-yl)nicotinamide] | 107% | 6.80 | 
2 | Cc1nc(C)c(C)c(N2CCc3ncc(Oc4ccccc4F)cc3C2)n1 [compound 260, 3-(2-fluorophenoxy)-6-(2,5,6-trimethylpyrimidin-4-yl)-5,6,7,8-tetrahydro-1,6-naphthyridine] | 87% | 6.81 | 
3 | Cc1c(C#N)nnc(N2CCc3ncc(-c4ccc(C5CC5)nc4)cc3C2)c1C [Example 301, 6-(3-(6-cyclopropylpyridin-3-yl)-7,8-dihydro-1,6-naphthyridin-6(5H)-yl)-4,5-dimethylpyridazine-3-carbonitrile] | 57% | 6.58 | 
4 | Cc1cc(C(=O)N2CC(F)C2)nnc1N1CCc2ncc(N3CCCn4nccc43)cc2C1 [Example 551, (6-(3-(6,7-dihydropyrazolo[1,5-a]pyrimidin-4(5H)-yl)-7,8-dihydro-1,6-naphthyridin-6(5H)-yl)-5-methylpyridazin-3-yl)(3-fluoroazetidin-1-yl)methanone] | 111% | 7.36 | 
5 | Cc1nc(C(=O)N2CCOCC2)c(C)c(N2CCc3ncc(C(F)(F)F)cc3C2)n1 [compound 221, (2,5-dimethyl-6-(3-(trifluoromethyl)-7,8-dihydro-1,6-naphthyridin-6(5H)-yl)pyrimidin-4-yl)(morpholino)methanone] | 25% | ≤ 5.00 | 
6 | Cc1cc(C#N)cnc1N1CCc2ncc(N3CC(C)Cn4nccc43)cc2C1 (stereo not shown) [Example 384, 5-methyl-6-(3-(6-methyl-6,7-dihydropyrazolo[1,5-a]pyrimidin-4(5H)-yl)-7,8-dihydro-1,6-naphthyridin-6(5H)-yl)nicotinonitrile] | 100% | 6.73 | 
7 | Cc1cc(C#N)cnc1N1CCc2ncc(OCCOc3ccc(F)cc3)cc2C1 [Example 428, 6-(3-(2-(4-fluorophenoxy)ethoxy)-7,8-dihydro-1,6-naphthyridin-6(5H)-yl)-5-methylnicotinonitrile] | 59% | 5.63 | 
8 | Cc1cnc2c(c1)CN(c1nnc(C#N)c(C)c1C)CC2 [compound 117, 4,5-dimethyl-6-(3-methyl-7,8-dihydro-5H-1,6-naphthyridin-6-yl)pyridazine-3-carbonitrile] |  | 5.44 | 55%
9 | Cc1c(C#N)nnc(N2CCc3ncc(-c4ccnnc4)cc3C2)c1C [compound 48, 4,5-dimethyl-6-(3-pyridazin-4-yl-7,8-dihydro-5H-1,6-naphthyridin-6-yl)pyridazine-3-carbonitrile] | 82% | 5.74 | 
10 | Cc1cc(C#N)cnc1N1CCc2ncc(C3CCC3)cc2C1 [Example 403, 6-(3-cyclobutyl-7,8-dihydro-1,6-naphthyridin-6(5H)-yl)-5-methylnicotinonitrile] | 91% | 7.08 | 
11 | Cc1cc(C(=O)NCc2ccncc2)nnc1N1CCc2ncc(C(F)(F)F)cc2C1 [Example 493, 5-methyl-N-(pyridin-4-ylmethyl)-6-(3-(trifluoromethyl)-7,8-dihydro-1,6-naphthyridin-6(5H)-yl)pyridazine-3-carboxamide] | 112% | 7.43 | 
12 | [2H]C([2H])(NC(=O)c1cc(C)c(N2CCc3ncc(C(F)(F)F)cc3C2)nn1)c1ccncc1 [Example 505, 5-methyl-N-(pyridin-4-ylmethyl-d2)-6-(3-(trifluoromethyl)-7,8-dihydro-1,6-naphthyridin-6(5H)-yl)pyridazine-3-carboxamide] | 112% | 7.68 | 
13 | Cc1cc(C#N)cnc1N1CCc2ncc(-c3cnn(C)c3)cc2C1 [compound 104, 5-methyl-6-[3-(1-methylpyrazol-4-yl)-7,8-dihydro-5H-1,6-naphthyridin-6-yl]pyridine-3-carbonitrile] | 99% | 6.67 | 
14 | Cc1cc(C#N)nnc1N1CCc2ncc(N3CCCn4nc(C5CC5)cc43)cc2C1 [Example 419, 6-(3-(2-cyclopropyl-6,7-dihydropyrazolo[1,5-a]pyrimidin-4(5H)-yl)-7,8-dihydro-1,6-naphthyridin-6(5H)-yl)-5-methylpyridazine-3-carbonitrile] | 87% | 6.55 | 
15 | Cc1c(C#N)nnc(N2CCc3ncc(Cc4ccccc4F)cc3C2)c1C [Example 369, 6-(3-(2-fluorobenzyl)-7,8-dihydro-1,6-naphthyridin-6(5H)-yl)-4,5-dimethylpyridazine-3-carbonitrile] | 63% | 6.37 | 

More lines, in order of rising pEC50, values ahead:

Row | Emax at 30 µM | pEC50 | SMILES | Emax (CHO-K1)
16 | 69% | 5.18 | Cc1cc(C(=O)N2CCOCC2)nnc1N1CCc2ncc(CC(F)(F)F)cc2C1 [Example 587, (5-methyl-6-(3-(2,2,2-trifluoroethyl)-7,8-dihydro-1,6-naphthyridin-6(5/)-yl)pyridazin-3-yl)(morpholino)methanone] | 
17 | 55% | 5.71 | Cc1cc(C(=O)NCc2ccc(-n3cccn3)cc2)cnc1N1CCc2ncccc2C1 [compound 67, 6-(7,8-dihydro-5H-1,6-naphthyridin-6-yl)-5-methyl-N-[(4-pyrazol-1-ylphenyl)methyl]pyridine-3-carboxamide] | 
18 | 67% | 5.79 | Cc1cc(C(=O)NCc2ccncc2)cnc1N1CCc2ncccc2C1 [compound 61, 6-(7,8-dihydro-5H-1,6-naphthyridin-6-yl)-5-methyl-N-(4-pyridylmethyl)pyridine-3-carboxamide] | 
19 | 48% | 5.79 | Cc1c(C#N)nnc(N2CCc3ncc(C(F)(F)F)cc3C2)c1C [Example 303, 4,5-dimethyl-6-(3-(trifluoromethyl)-7,8-dihydro-1,6-naphthyridin-6(5H)-yl)pyridazine-3-carbonitrile] | 
20 | 76% | 5.83 | COc1cc(-c2cnc3c(c2)CN(c2nnc(C#N)c(C)c2C)CC3)ccn1 [compound 76, 6-[3-(2-methoxy-4-pyridyl)-7,8-dihydro-5H-1,6-naphthyridin-6-yl]-4,5-dimethyl-pyridazine-3-carbonitrile] | 
21 | 60% | 6.06 | Cc1c(C#N)nnc(N2CCc3ncc(-c4cncnc4)cc3C2)c1C [compound 49, 4,5-dimethyl-6-(3-pyrimidin-5-yl-7,8-dihydro-5H-1,6-naphthyridin-6-yl)pyridazine-3-carbonitrile] | 
22 | 85% | 6.18 | Cc1nc(Cl)c(C)c(N2Cc3cc(C(F)(F)F)cnc3C(C)C2)n1 (stereo not shown) [compound 256, 6-(6-chloro-2,5-dimethylpyrimidin-4-yl)-8-methyl-3-(trifluoromethyl)-5,6,7,8-tetrahydro-1,6-naphthyridine] | 
23 | 96% | 6.27 | COCc1nc(Cl)c(C)c(N2CCc3ncc(-c4cncs4)cc3C2)n1 [compound 217, 5-(6-(6-chloro-2-(methoxymethyl)-5-methylpyrimidin-4-yl)-5,6,7,8-tetrahydro-1,6-naphthyridin-3-yl)thiazole] | 
24 | 93% | 6.28 | Cc1ccc(-c2cnc3c(c2)CN(c2nnc(C#N)c(C)c2C)CC3)cn1 [Example 298, 4,5-dimethyl-6-(3-(6-methylpyridin-3-yl)-7,8-dihydro-1,6-naphthyridin-6(5H)-yl)pyridazine-3-carbonitrile] | 
25 | 79% | 6.61 | Cc1cc(C(=O)NCc2cncs2)cnc1N1CCc2ncc(-c3ccc(N(C)C)nc3)cc2C1 [Example 485, 6-(3-(6-(dimethylamino)pyridin-3-yl)-7,8-dihydro-1,6-naphthyridin-6(5H)-yl)-5-methyl-N-(thiazol-5-ylmethyl)nicotinamide] | 
26 | 106% | 6.61 | COc1ccc(-c2cnc3c(c2)CN(c2ncc(C#N)cc2C)CC3)cn1 [compound 188, 6-[3-(6-methoxy-3-pyridyl)-7,8-dihydro-5H-1,6-naphthyridin-6-yl]-5-methyl-pyridine-3-carbonitrile] | 
27 | 89% | 6.70 | Cc1cnccc1-c1cnc2c(c1)CN(c1nnc(C#N)c(C)c1C)CC2 [compound 77, 4,5-dimethyl-6-[3-(3-methyl-4-pyridyl)-7,8-dihydro-5H-1,6-naphthyridin-6-yl]pyridazine-3-carbonitrile] | 
28 | 102% | 7.28 | Cc1cc(C(=O)N2CC(C(C)(C)O)C2)nnc1N1CCc2ncc(N3CCCn4nccc43)cc2C1 [Example 528, (6-(3-(6,7-dihydropyrazolo[1,5-a]pyrimidin-4(5H)-yl)-7,8-dihydro-1,6-naphthyridin-6(5H)-yl)-5-methylpyridazin-3-yl)(3-(2-hydroxypropan-2-yl)azetidin-1-yl)methanone] | 
29 | 89% | 7.96 | Cc1cc(Nc2cnc3c(c2)CN(c2nnc(C#N)cc2C)CC3)c(F)cn1 [Example 615, 6-(3-((5-fluoro-2-methylpyridin-4-yl)amino)-7,8-dihydro-1,6-naphthyridin-6(5H)-yl)-5-methylpyridazine-3-carbonitrile] | 

From patent US20250230155A1 (Vanderbilt University, priority 2021, published 2025)
